No end group written: not given here.
System: C2C12 myotubes
Assay: Glucose uptake in muscle myotubes
Type: cell-based, rat
Settings: different concentrations of RG54; three independent experiments
Method: C2C12 myoblasts were differentiated to myotubes by switching from growth media to 2% FBS DMEM for 7 days, with the addition of cytosine arabinoside (Sigma, Stockholm, Sweden) from day 3 to 5 to eliminate proliferating cells. Prior to stimulation, cells starved for 2 h in serum-free DMEM were treated as described and glucose uptake measurements were carried out. See ESM Methods for more details.
Fig. 3 RG54 induces skeletal muscle glucose uptake and primes INS-1E cells to increase GSIS. (a) C2C12 skeletal muscle myotubes were incubated in the absence or presence of different concentrations of RG54 or with insulin, followed by glucose uptake measurements. Values are means ± SEM from three independent experiments. *p≤0.05, **p≤0.01, ***p≤0.001 vs control. (b) INS-1E cells were incubated for 2 h in the absence or presence of different concentrations of RG54 in a low-glucose environment (preincubation). Buffer was replaced with one containing low (3.3 mmol/l) or high (20 mmol/l) glucose but no RG54 peptide. Insulin secretion was measured after 1 h glucose challenge. […]
No statistical methods were used to predetermine sample sizes, but sample sizes are similar to those reported in the field. […] Group allocation was blinded for all mouse work when possible (such as collection of blood or tissues, sample quantification and analysis, and atherosclerosis scoring). […]

Q: With “Ac-AEYHAKATEHLSTLSEKAKPALEDLRQGLLPVLESFKVSFLSALEEYTKKLNTQ [RG54]” as the substance, how does the glucose uptake read?
A: dose-dependent stimulation

Reference: article PMC6560211, “ApoAI-derived peptide increases glucose tolerance and prevents formation of atherosclerosis in mice” (Diabetologia, 2019)
